Measured values: patent US20230049231A1 (priority 2019, published 2023)

Key:
Kv1.3 potassium channel = target: T1, Kv1.3 potassium channel (Homo sapiens, UniProt P22001); experiment: Kv1.3 potassium channel blocker activity, automated whole-cell patch clamp (Patchliner); format: cell-based
T1 construct: expressed in transfected cells
In short: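 IC50 came from Hill-equation fits of peak and AUC currents from the final pulse at each concentration, normalized to compound-free control. Compounds applied consecutively at 30 nM to 100 μM (up to 0.3% DMSO) to Kv1.3-expressing CHO-K1 cells, P/4 leak subtraction. Pulses were +40 mV, 100 ms, from −90 mV holding, at 0.1 Hz on Patchliner.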

hERG channel = target: T2, hERG channel (Homo sapiens, UniProt Q12809); experiment: hERG electrophysiology, automated whole-cell patch clamp (Patchliner); format: cell-based
T2 construct: expressed in transfected cells
Procedure: This assay is used to evaluate the disclosed compounds' inhibition activities against the hERG channel.
CHO-K1 cells stably expressing hERG were grown in Ham's F-12 Medium with glutamine containing 10% heat-inactivated FBS, 1% penicillin/streptomycin, hygromycin (100 μg/ml) and G418 (100 μg/ml). Cells were grown in culture flasks at 37° C. in a 5% CO2-humidified incubator.
The cells were bathed in an extracellular solution containing 140 mM NaCl, 4 mM KCl, 2 mM CaCl2), 1 mM MgCl2, 5 mM glucose, and 10 mM HEPES; pH adjusted to 7.4 with NaOH; 295-305 mOsm. The internal solution contained 50 mM KCl, 10 mM NaCl, 60 mM KF, 20 mM EGTA, and 10 mM HEPES; pH adjusted to 7.2 with KOH; 285 mOsm. All compounds were dissolved in DMSO at 30 mM. Compound stock solutions were freshly diluted with external solution to concentrations of 30 nM, 100 nM, 300 nM, 1 μM, 3 μM, 10 μM, 30 μM and 100 μM. The highest content of DMSO (0.3%) was present in 100 μM.
The voltage protocol (see Table 3) was designed to simulate voltage changes during a cardiac action potential with a 300 ms depolarization to +20 mV (analogous to the plateau phase of the cardiac action potential), a repolarization for 300 ms to −50 mV (inducing a tail current) and a final step to the holding potential of −80 mV. The pulse frequency was 0.3 Hz. Control (compound-free) and compound pulse trains for each compound concentration applied contained 70 pulses.
Whole-cell current recordings and compound application were enabled by means of an automated patch clamp platform Patchliner (Nanion). EPC 10 patch clamp amplifier (HEKA) along with Patchmaster software (HEKA Elektronik Dr. Schulze GmbH) was used for data acquisition. Data were sampled at 10 kHz without filtering. Increasing compound concentrations were applied consecutively to the same cell without washouts in between.
AUC and PEAK values were obtained with Patchmaster (HEKA Elektronik Dr. Schulze GmbH). To determine IC50 the last single pulse in the pulse train corresponding to a given compound concentration was used. Obtained AUC and PEAK values in the presence of compound were normalized to control values in the absence of compound. Using Origin (OridinLab), IC50 was derived from data fit to Hill equation: Icompound/Icontrol=(100-A)/(1+([compound]/IC50)nH)+A, where IC50 is the concentration at which current inhibition is half-maximal, [compound] is the applied compound concentration, A is the fraction of current that is not blocked and nH is the Hill coefficient.

[1] = Kv1.3 potassium channel, whole-cell patch clamp
[2] = hERG channel, whole-cell patch clamp
[3] = CHO-K1 cells stably expressing Kv1.3, 100 ms pulses from -90 mV to +40 mV, 0.1 Hz
[4] = CHO-K1 cells stably expressing hERG, +20 mV 300 ms, -50 mV 300 ms tail current, 0.3 Hz

T2 sequence (Q12809 whole entry): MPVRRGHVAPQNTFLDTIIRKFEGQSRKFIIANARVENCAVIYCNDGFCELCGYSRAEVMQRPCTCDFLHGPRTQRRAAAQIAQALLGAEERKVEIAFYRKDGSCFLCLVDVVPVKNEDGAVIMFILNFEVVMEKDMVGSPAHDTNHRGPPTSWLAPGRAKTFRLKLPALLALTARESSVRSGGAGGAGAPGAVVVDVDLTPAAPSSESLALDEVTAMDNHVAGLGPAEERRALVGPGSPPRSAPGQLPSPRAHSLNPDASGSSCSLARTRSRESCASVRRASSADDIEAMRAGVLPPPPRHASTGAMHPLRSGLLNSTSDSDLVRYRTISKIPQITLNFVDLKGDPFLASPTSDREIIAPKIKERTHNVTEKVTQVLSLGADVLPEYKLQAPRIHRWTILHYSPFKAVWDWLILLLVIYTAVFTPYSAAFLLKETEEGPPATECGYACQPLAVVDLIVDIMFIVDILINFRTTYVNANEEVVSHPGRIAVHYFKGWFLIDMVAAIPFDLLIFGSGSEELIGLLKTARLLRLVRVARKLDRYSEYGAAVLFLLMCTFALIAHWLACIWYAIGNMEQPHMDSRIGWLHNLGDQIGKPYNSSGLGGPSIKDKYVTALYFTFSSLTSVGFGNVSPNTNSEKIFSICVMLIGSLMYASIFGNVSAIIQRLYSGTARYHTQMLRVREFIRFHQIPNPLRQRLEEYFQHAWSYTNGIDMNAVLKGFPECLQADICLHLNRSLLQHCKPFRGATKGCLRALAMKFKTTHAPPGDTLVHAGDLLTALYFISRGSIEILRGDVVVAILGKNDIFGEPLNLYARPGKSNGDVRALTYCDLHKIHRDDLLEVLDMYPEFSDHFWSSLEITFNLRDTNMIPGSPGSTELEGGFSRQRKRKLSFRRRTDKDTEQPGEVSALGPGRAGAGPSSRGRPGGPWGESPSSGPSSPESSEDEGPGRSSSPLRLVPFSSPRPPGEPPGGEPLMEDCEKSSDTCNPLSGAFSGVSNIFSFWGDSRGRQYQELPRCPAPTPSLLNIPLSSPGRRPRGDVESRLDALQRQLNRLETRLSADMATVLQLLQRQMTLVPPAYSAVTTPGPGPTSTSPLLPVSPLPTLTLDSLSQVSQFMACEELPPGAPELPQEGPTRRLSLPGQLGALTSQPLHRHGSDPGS
T1 sequence (P22001 whole entry): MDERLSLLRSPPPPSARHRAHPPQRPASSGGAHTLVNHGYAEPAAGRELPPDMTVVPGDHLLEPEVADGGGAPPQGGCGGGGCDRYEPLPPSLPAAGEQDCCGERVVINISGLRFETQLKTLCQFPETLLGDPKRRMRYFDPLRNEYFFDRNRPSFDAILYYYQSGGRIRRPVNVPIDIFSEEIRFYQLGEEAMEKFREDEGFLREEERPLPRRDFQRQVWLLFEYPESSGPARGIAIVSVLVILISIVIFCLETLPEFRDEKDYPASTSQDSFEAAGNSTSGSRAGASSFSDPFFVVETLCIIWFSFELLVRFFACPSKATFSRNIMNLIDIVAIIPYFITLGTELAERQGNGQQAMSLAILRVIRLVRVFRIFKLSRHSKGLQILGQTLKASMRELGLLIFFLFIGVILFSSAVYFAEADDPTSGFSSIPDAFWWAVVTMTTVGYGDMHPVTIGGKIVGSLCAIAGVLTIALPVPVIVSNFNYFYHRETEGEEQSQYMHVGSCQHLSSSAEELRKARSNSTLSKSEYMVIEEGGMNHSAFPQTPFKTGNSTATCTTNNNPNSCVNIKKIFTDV

With O=C1O[C@H]([C@@H](O)CO)[C@@H]2C[C@H](c3c(O)ccc(Cl)c3Cl)CN12 (single isomer, unassigned) [Compound 262] the IC50 (Kv1.3 potassium channel; [1]) was < 1 µM and the IC50 (hERG channel; [2]) was > 30 µM.

In the case of O=C1O[C@H]([C@H](O)CO)[C@@H]2C[C@H](c3c(O)ccc(Cl)c3Cl)CN12 (single isomer, unassigned) [Compound 263], the IC50 (Kv1.3 potassium channel; [1]) is reported as < 1 µM and the IC50 (hERG channel; [2]) is reported as > 30 µM.

C[C@]1(CO)OC(=O)N2C[C@@H](c3c(O)ccc(Cl)c3Cl)C[C@H]21 (single isomer, unassigned) [Compound 264] was tested, and the IC50 (Kv1.3 potassium channel; [1]) was < 1 µM and the IC50 (hERG channel; [2]) was > 30 µM.

With C[C@@]1(CO)OC(=O)N2C[C@@H](c3c(O)ccc(Cl)c3Cl)C[C@H]21 (single isomer, unassigned) [Compound 265] the IC50 (Kv1.3 potassium channel; [1]) was < 1 µM and the IC50 (hERG channel; [2]) was > 30 µM.

O=C1OC[C@@H](O)[C@@H]2C[C@H](c3c(O)ccc(Cl)c3Cl)CN12 (single isomer, unassigned) [Compound 266] was tested, and the IC50 (Kv1.3 potassium channel; [1]) was < 1 µM and the IC50 (hERG channel; [2]) was > 30 µM.

With O=C1OC[C@H](O)[C@@H]2C[C@H](c3c(O)ccc(Cl)c3Cl)CN12 (single isomer, unassigned) [Compound 267] the IC50 (Kv1.3 potassium channel; [1]) was < 1 µM and the IC50 (hERG channel; [2]) was > 30 µM.

In the case of O=C1O[C@H](CO)C[C@@H]2C[C@H](c3c(O)ccc(Cl)c3Cl)CN12 (single isomer, unassigned) [Compound 268], the IC50 (Kv1.3 potassium channel; [1]) is reported as < 1 µM and the IC50 (hERG channel; [2]) is reported as > 30 µM.

O=C1O[C@@H](CO)C[C@@H]2C[C@H](c3c(O)ccc(Cl)c3Cl)CN12 (single isomer, unassigned) [Compound 269] was tested, and the IC50 (Kv1.3 potassium channel; [1]) was < 1 µM and the IC50 (hERG channel; [2]) was > 30 µM.

For O=C1O[C@H](CCO)[C@@H]2C[C@H](c3c(O)ccc(Cl)c3Cl)CN12 (single isomer, unassigned) [Compound 270], the IC50 (Kv1.3 potassium channel; [1]) was < 1 µM and the IC50 (hERG channel; [2]) was < 30 µM.

With O=C1O[C@@H](CCO)[C@@H]2C[C@H](c3c(O)ccc(Cl)c3Cl)CN12 (single isomer, unassigned) [Compound 271] the IC50 (Kv1.3 potassium channel; [1]) was < 1 µM and the IC50 (hERG channel; [2]) was < 30 µM.

NC[C@@H]1OC(=O)N2C[C@@H](c3c(O)ccc(Cl)c3Cl)C[C@@H]12 (single isomer, unassigned) [Compound 272] was tested, and the IC50 (Kv1.3 potassium channel; [1]) was < 1 µM and the IC50 (hERG channel; [2]) was < 30 µM.

In the case of NC[C@H]1OC(=O)N2C[C@@H](c3c(O)ccc(Cl)c3Cl)C[C@@H]12 (single isomer, unassigned) [Compound 273], the IC50 (Kv1.3 potassium channel; [1]) is reported as < 1 µM and the IC50 (hERG channel; [2]) is reported as > 30 µM.

In the case of O=C(CO)NC[C@@H]1OC(=O)N2C[C@@H](c3c(O)ccc(Cl)c3Cl)C[C@@H]12 (single isomer, unassigned) [Compound 274], the IC50 (Kv1.3 potassium channel; [1]) is reported as < 1 µM and the IC50 (hERG channel; [2]) is reported as > 30 µM.

O=C(CO)NC[C@H]1OC(=O)N2C[C@@H](c3c(O)ccc(Cl)c3Cl)C[C@@H]12 (single isomer, unassigned) [Compound 275] was tested, and the IC50 (Kv1.3 potassium channel; [1]) was < 1 µM and the IC50 (hERG channel; [2]) was > 30 µM.

In the case of O=C(NC[C@@H]1OC(=O)N2C[C@@H](c3c(O)ccc(Cl)c3Cl)C[C@@H]12)C1CNC1 (single isomer, unassigned) [Compound 277], the IC50 (Kv1.3 potassium channel; [1]) is reported as < 1 µM and the IC50 (hERG channel; [2]) is reported as > 30 µM.

In the case of O=C(NC[C@H]1OC(=O)N2C[C@@H](c3c(O)ccc(Cl)c3Cl)C[C@@H]12)C1CNC1 (single isomer, unassigned) [Compound 278], the IC50 (Kv1.3 potassium channel; [1]) is reported as < 1 µM and the IC50 (hERG channel; [2]) is reported as > 30 µM.

For O=C1O[C@@H](CN2CCNCC2)[C@@H]2C[C@H](c3c(O)ccc(Cl)c3Cl)CN12 (single isomer, unassigned) [Compound 279], the IC50 (Kv1.3 potassium channel; [1]) was < 1 µM and the IC50 (hERG channel; [2]) was < 30 µM.

With O=C1O[C@H](CN2CCNCC2)[C@@H]2C[C@H](c3c(O)ccc(Cl)c3Cl)CN12 (single isomer, unassigned) [Compound 280] the IC50 (Kv1.3 potassium channel; [1]) was < 1 µM and the IC50 (hERG channel; [2]) was > 30 µM.

For O=C1O[C@@H](CN2CC(O)C2)[C@@H]2C[C@H](c3c(O)ccc(Cl)c3Cl)CN12 (single isomer, unassigned) [Compound 282], the IC50 (Kv1.3 potassium channel; [1]) was < 1 µM and the IC50 (hERG channel; [2]) was < 30 µM.

For O=C1O[C@H](CN2CC(O)C2)[C@@H]2C[C@H](c3c(O)ccc(Cl)c3Cl)CN12 (single isomer, unassigned) [Compound 283], the IC50 (Kv1.3 potassium channel; [1]) was < 1 µM and the IC50 (hERG channel; [2]) was > 30 µM.

O=C1O[C@@H](CN2CCOCC2)[C@@H]2C[C@H](c3c(O)ccc(Cl)c3Cl)CN12 (single isomer, unassigned) [Compound 284] was tested, and the IC50 (Kv1.3 potassium channel; [1]) was < 1 µM and the IC50 (hERG channel; [2]) was > 30 µM.

In the case of O=C1O[C@H](CN2CCOCC2)[C@@H]2C[C@H](c3c(O)ccc(Cl)c3Cl)CN12 (single isomer, unassigned) [Compound 285], the IC50 (Kv1.3 potassium channel; [1]) is reported as < 1 µM and the IC50 (hERG channel; [2]) is reported as > 30 µM.

In the case of NC(=O)[C@@H]1OC(=O)N2C[C@@H](c3c(O)ccc(Cl)c3Cl)C[C@@H]12 (single isomer, unassigned) [Compound 286], the IC50 (Kv1.3 potassium channel; [1]) is reported as < 1 µM and the IC50 (hERG channel; [2]) is reported as > 30 µM.

NC(=O)[C@H]1OC(=O)N2C[C@@H](c3c(O)ccc(Cl)c3Cl)C[C@@H]12 (single isomer, unassigned) [Compound 287] was tested, and the IC50 (Kv1.3 potassium channel; [1]) was < 1 µM and the IC50 (hERG channel; [2]) was > 30 µM.

For CNC(=O)[C@@H]1OC(=O)N2C[C@@H](c3c(O)ccc(Cl)c3Cl)C[C@@H]12 (single isomer, unassigned) [Compound 288], the IC50 (Kv1.3 potassium channel; [1]) was < 1 µM and the IC50 (hERG channel; [2]) was > 30 µM.

With O=C1CN(C(=O)[C@H]2C[C@H](O)C2)C[C@@H]2C[C@H](c3c(O)ccc(Cl)c3Cl)CN12 (single isomer, unassigned; isomer 1) [Compound 27] the IC50 (Kv1.3 potassium channel; [3]) was < 1 µM and the IC50 (hERG channel; [4]) was > 30 µM.

O=C1C[C@@H](O)C[C@@H]2C[C@H](c3c(O)ccc(Cl)c3Cl)CN12 (single isomer, unassigned; isomer 1) [Compound 61] was tested, and the IC50 (Kv1.3 potassium channel; [3]) was < 1 µM and the IC50 (hERG channel; [4]) was > 30 µM.

In the case of C[C@@H]1CN(C(=O)CO)C[C@@H]2C[C@H](c3c(O)ccc(Cl)c3Cl)CN2C1=O (single isomer, unassigned; isomer 1) [Compound 91], the IC50 (Kv1.3 potassium channel; [1]) is reported as < 1 µM and the IC50 (hERG channel; [2]) is reported as > 30 µM.

With O=C1CN(C[C@@H]2CCN2)C[C@@H]2C[C@H](c3c(O)ccc(Cl)c3Cl)CN12 (single isomer, unassigned; isomer 1) [Compound 139] the IC50 (Kv1.3 potassium channel; [1]) was < 1 µM and the IC50 (hERG channel; [2]) was > 30 µM.

C[C@@H](O)CN1CC(=O)N2C[C@@H](c3c(O)ccc(Cl)c3Cl)C[C@H]2C1 (single isomer, unassigned; isomer 1) [Compound 150] was tested, and the IC50 (Kv1.3 potassium channel; [1]) was < 1 µM and the IC50 (hERG channel; [2]) was > 30 µM.

With COC[C@@H](O)CN1CC(=O)N2C[C@@H](c3c(O)ccc(Cl)c3Cl)C[C@H]2C1 (single isomer, unassigned; isomer 1) [Compound 152] the IC50 (Kv1.3 potassium channel; [1]) was < 1 µM and the IC50 (hERG channel; [2]) was < 30 µM.

In the case of O=C1C[C@@H](N2CC(=O)N3C[C@@H](c4c(O)ccc(Cl)c4Cl)C[C@H]3C2)CN1 (single isomer, unassigned; isomer 1) [Compound 160], the IC50 (Kv1.3 potassium channel; [1]) is reported as < 1 µM and the IC50 (hERG channel; [2]) is reported as > 30 µM.

O=C1CN([C@H]2C[C@](O)(CO)C2)C[C@@H]2C[C@H](c3c(O)ccc(Cl)c3Cl)CN12 (single isomer, unassigned; isomer 1) [Compound 163] was tested, and the IC50 (Kv1.3 potassium channel; [1]) was < 1 µM and the IC50 (hERG channel; [2]) was > 30 µM.

For O=C1CN(C(=O)[C@H]2C[C@@H](O)C2)C[C@@H]2C[C@H](c3c(O)ccc(Cl)c3Cl)CN12 (single isomer, unassigned; isomer 2) [Compound 22], the IC50 (Kv1.3 potassium channel; [3]) was < 1 µM and the IC50 (hERG channel; [4]) was > 30 µM.

With O=C1C[C@H](O)C[C@@H]2C[C@H](c3c(O)ccc(Cl)c3Cl)CN12 (single isomer, unassigned; isomer 2) [Compound 62] the IC50 (Kv1.3 potassium channel; [3]) was < 1 µM and the IC50 (hERG channel; [4]) was > 30 µM.

With C[C@H]1[C@@H]2C[C@H](c3c(O)ccc(Cl)c3Cl)CCN2C(=O)CN1C(=O)CO (single isomer, unassigned; isomer 2) [Compound 84] the IC50 (Kv1.3 potassium channel; [1]) was < 1 µM and the IC50 (hERG channel; [2]) was > 30 µM.

For C[C@H]1[C@@H]2C[C@H](c3c(O)ccc(Cl)c3Cl)CN2C(=O)CN1C(=O)CO (single isomer, unassigned; isomer 2) [Compound 88], the IC50 (Kv1.3 potassium channel; [1]) was < 1 µM and the IC50 (hERG channel; [2]) was > 30 µM.

With C[C@H]1CN(C(=O)CO)C[C@@H]2C[C@H](c3c(O)ccc(Cl)c3Cl)CN2C1=O (single isomer, unassigned; isomer 2) [Compound 92] the IC50 (Kv1.3 potassium channel; [1]) was < 1 µM and the IC50 (hERG channel; [2]) was > 30 µM.
